In brackets after ≈: the same amount, converted by molar mass. Like-named read-outs stand apart in the source and are kept apart here. No end group written: not given here.
How the values were obtained:
HepG2 cells [1] = format: cell-based
Procedure: HepG2 cells were seeded in 96-well plates (1 × 10^4 cells/well) and cultured for 48 h. To the AAPH damage group, we added 150 µL of fresh medium containing AAPH (final concentration 0.025–25 mM), and to the control group, we added fresh medium without AAPH. After culturing for 24 h, cell viability was determined by the MTT method. HepG2 cells were seeded in 96-well plates (1 × 10^4 cells/well) and cultured for 24 h. To the sample treated group, we added 150 µL of fresh medium containing samples (0.025–0.2 mg/mL). To the control group and AAPH damage group, we added fresh medium without samples. After treating for 24 h, to the sample treated group and AAPH damage group, we added 50 µL of fresh medium containing AAPH (final concentrations of 0.25 and 10 mM). After culturing for 24 h, cell viability was determined.

HepG2 cells [2] = test: cells; conditions: for EC50 (cellular antioxidant activity): 1 h
Procedure: Obtained from National Collection of Authenticated Cell Cultural (Shanghai, China), HepG2 cells between 20 and 35 passages were grown in medium (DMEM supplemented with 10% fetal bovine serum, 1% antibiotic–antimycotic solution) in a 5% CO2 incubator at 37 °C.
Cellular antioxidant activity (CAA) was determined according to the method of Wolfe et al.. HepG2 cells were seeded in 96-well plates (6 × 10^4 cells/well) and cultured for 24 h. DCFH-DA working solution (50 µL, 50 µM) and 50 µL of medium with sample (0.005–0.1 mg/mL) were added in the sample treated group. DCFH-DA working solution (50 µL, 50 µM) and sterile water (50 µL) were added to the control group and the blank group. After incubated for 1 h, the cells were washed with PBS. Then, AAPH working solution (100 µL, […]) was added to the sample treated group and the control group, and fresh medium was added to the blank group. Fluorescence values were determined every 5 min for 1 h at an excitation wavelength of 485 nm and a determination wavelength of 528 nm. […] The CAA unit was calculated by the area of fluorescence curve (AUC), as shown in Equation (3). […] The Trolox equivalent (TEAC µM TE/g peptides) was calculated to represent the CAA value. (3) CAA=[1−(AUCt−AUCo)/(AUCc−AUCo)]×100 where AUCt, AUCc, and AUCo were the fluorescence curve area of the test sample, the control, and the blank group, respectively.

HepG2 cells [3] = tested on: HepG2 cells; parameters: method as in 2 sources, ref 23 = [23]; PMID 28764069; doi:10.1016/j.foodchem.2017.05.144; 23. Liang R. Zhang Z. Lin S. Effects of pulsed electric field on intracellular antioxidant activity and antioxidant enzyme regulating capacities of pine nut ( Pinus koraiensis ) peptide QDHCH in HepG2 ||| ref 24 = [24]; PMID 29195889; doi:10.1016/j.foodres.2016.10.023; 24. Wang L. Ding L. Yu Z. Zhang T. Ma S. Liu J. Intracellular ROS scavenging and antioxidant enzyme regulating capacities of corn gluten meal-derived antioxidant peptides in HepG2 cells Food Res. Int.; conditions: related report, pine nut peptide; cited from earlier work
Description: The principle of CAA is that intracellular lipase degrades the fluorescent probe DCFH-DA to DCFH, which is oxidized to fluorescent DCF by intracellular free radicals under AAPH induction, and the antioxidant peptide can protect the probe from oxidation. […] In related reports, ...

In the case of `N[C@@H](CCC(=O)N[C@@H](CS)C(=O)NCC(=O)O)C(=O)O` [GSH, Glutathione, reference compound], the “cell viability, 50% cell viability model” value (HepG2 cells [1]; HepG2, AAPH-induced damage (0.25 mM as printed), sample 0.2 mg/mL 24 h then AAPH 24 h, MTT, AAPH damage group 49.51%) is reported as 57.60%, the “cell viability, 80% cell viability model” value (HepG2 cells [1]; HepG2, AAPH-induced damage (10 mM [sic]), sample 0.2 mg/mL 24 h then AAPH 24 h, MTT, AAPH damage group 79.41%) is reported as 92.08% and the “CAA Value” (HepG2 cells [2]; HepG2, Trolox equivalent, Trolox as standard antioxidant) is reported as 4.593 mM TE/g Peptide. It also gave an EC50 (HepG2 cells [2]; Homo sapiens, HepG2, 1 h, read-out: EC50 (cellular antioxidant activity)) of 30 µg/mL (≈ 97.6 µM).
With GGSIT [GGSIT] the “cell viability, 50% cell viability model” value (HepG2 cells [1]; 24 h, 0.2 mg/mL) was 66.35%, the “cell viability, 80% cell viability model” value (HepG2 cells [1]; 24 h, 0.2 mg/mL) was 96.06% and the “EC50 (cellular antioxidant activity)” value (HepG2 cells [2]) was 73 µg/mL.
For GGSLT [GGSLT], the “cell viability, 50% cell viability model” value (HepG2 cells [1]; 24 h, 0.2 mg/mL) was 68.25% and the “EC50 (cellular antioxidant activity)” value (HepG2 cells [2]) was 64 µg/mL.
In the case of NSVAA [NSVAA], the “cell viability, 50% cell viability model” value (HepG2 cells [1]; 24 h, 0.2 mg/mL) is reported as 70.55%, the “cell viability, 80% cell viability model” value (HepG2 cells [1]; 24 h, 0.2 mg/mL) is reported as 100.09% and the “EC50 (cellular antioxidant activity)” value (HepG2 cells [2]) is reported as 95 µg/mL.
In the case of “QDHCH [pine nut peptide of a related report]”, the “EC50 value (cellular antioxidant activity)” value (HepG2 cells [3]) is listed as 130 µg/mL.
With SGTAV [SGTAV] the “cell viability, 50% cell viability model” value (HepG2 cells [1]; 24 h, 0.2 mg/mL) was 73.61%, the “cell viability, 80% cell viability model” value (HepG2 cells [1]; 24 h, 0.2 mg/mL) was 107.43% and the “EC50 (cellular antioxidant activity)” value (HepG2 cells [2]) was 9 µg/mL.
For SPSSS [SPSSS], the “cell viability, 50% cell viability model” value (HepG2 cells [1]; 24 h, 0.2 mg/mL) was 73.52%, the “cell viability, 80% cell viability model” value (HepG2 cells [1]; 24 h, 0.2 mg/mL) was 101.09% and the “EC50 (cellular antioxidant activity)” value (HepG2 cells [2]) was 27 µg/mL.
With TGVAS [TGVAS] the “cell viability, 50% cell viability model” value (HepG2 cells [1]; 24 h, 0.2 mg/mL) was 64.69% and the “EC50 (cellular antioxidant activity)” value (HepG2 cells [2]) was 37 µg/mL.
